In patent publication US3963777A, “1-Polyhydroxy alkyl-1,4-benzodiazepin-2-ones” (Hoffmann-La Roche Inc., priority 1975, dated 1976):

Columns and labels:
[1] = standard pentamethylenetetrazole (pentetrazole) test for anticonvulsant activity, method of Orloff; type: in vivo; details: p.o.
From the text: The compounds of formula I above and their pharmaceutically acceptable acid addition salts are useful as sedative muscle relaxant and anti-convulsant agents.

mice = assay: standard rotating rod test (sedative and muscle-relaxant activity); type: in vivo; details: p.o.
Procedure: In this test, the ability of mice to achieve a coordinated motor performance is investigated. After peroral administration of the test substance, the mice are placed upon a horizontal slowly rotating rod and the time they remain on the rod is recorded. The ED50 is that dose which reduces the holding on period of the mice by 50% as compared to the holding on period prior to the administration of the test substance.

[2] = LD50 (p.o.), acute toxicity; details: in vivo, po

SMILES: O=C1CN=C(c2ccccc2F)c2cc(Cl)ccc2N1CC(O)CO (stereo not drawn) [Compound A, 7-chloro-1-(2,3-dihydroxypropyl)-5-(2-fluorophenyl)-1,3-dihydro-2H-1,4-benzodiazepin-2-one]
- APR 2.0 (dosage of an anticonvulsant which causes a two-fold pentetrazole consumption in contrast to an untreated control group) [1]: 5.6 mg/kg
- ED50 (dose which reduces the holding on period of the mice by 50% as compared to the holding on period prior to administration) (mice): 5.1 mg/kg
- LD50 [2]: 1250 to 2500 mg/kg
